Results as given in patent US10793547B2, “Modulator of the cystic fibrosis transmembrane conductance regulator, pharmaceutical compositions, methods of treatment, and process for making the modulator” (Vertex Pharmaceuticals Incorporated, priority 2016, dated 2020).

How the values were obtained:
F508del-CFTR = biological target: T1, F508del-CFTR (Homo sapiens, UniProt P13569, DEL508-508); experiment: Membrane potential optical (FLIPR) assay for F508del-CFTR modulators in NIH 3T3 cells; format: cell-based; settings: NIH 3T3 cells expressing F508del; assay A1; read-out: CFTRdF508 Cor 3T3 FLIPR 384 CFTRdF508 MP 3T3 770 EC50
T1 construct: expressed in transfected cells
Description: Membrane Potential Optical Methods for Assaying Properties of F508del-CFTR Modulators
The assay utilizes fluorescent voltage sensing dyes to measure changes in membrane potential using a fluorescent plate reader (e.g., FLIPR III, Molecular Devices, Inc.) as a readout for increase in functional F508del in NIH 3T3 cells. The driving force for the response is the creation of a chloride ion gradient in conjunction with channel activation and concurrent with compound treatment by a single liquid addition step after the cells have previously been loaded with a voltage sensing dye.
A1. Identification of F508del-CFTR Modulators
To identify modulators of F508del, a fluorescence based HTS assay format was developed. This HTS assay utilizes fluorescent voltage sensing dyes to measure changes in membrane potential on the FLIPR III as a measurement for increase in gating (conductance) of F508del NIH 3T3 cells. The driving force for the response is the creation of a chloride ion gradient in conjunction with channel activation and concurrent with compound treatment by a single liquid addition step after the cells have previously been loaded with a voltage sensing dye.
Bath Solution #1: (in mM) NaCl 160, KCl 4.5, CaCl2 2, MgCl2 1, HEPES 10, pH 7.4 with NaOH, Glucose 10.
Chloride-free bath solution: Chloride salts in Bath Solution #1 (above) are substituted with gluconate salts.
NIH3T3 mouse fibroblasts stably expressing F508del were used for optical measurements of membrane potential. The cells were maintained at 37° C. in 5% CO2 and 90% humidity in Dulbecco's modified Eagle's medium supplemented with 2 mM glutamine, 10% fetal bovine serum, 1×NEAA, β-ME, 1× pen/strep, and 25 mM HEPES in 175 cm^2 culture flasks. For all optical assays, the cells were seeded at 12,000 cells/well in 384-well matrigel-coated plates and cultured for 18-24 hrs at 37° C. for the potentiator assay. For the correction assay, the cells were cultured at 37° C. with and without compounds for 18-24 hours.

human PXR = biological target: T2, human PXR (Homo sapiens, UniProt O75469); experiment: PXR assay: PXR mediated CYP3A4 induction in DPX-2 cell line; format: cell-based; settings: DPX-2 cells
T2 construct: host or cells: DPX-2 cell line (derived from HepG2)
T2 sequence (O75469 1-434): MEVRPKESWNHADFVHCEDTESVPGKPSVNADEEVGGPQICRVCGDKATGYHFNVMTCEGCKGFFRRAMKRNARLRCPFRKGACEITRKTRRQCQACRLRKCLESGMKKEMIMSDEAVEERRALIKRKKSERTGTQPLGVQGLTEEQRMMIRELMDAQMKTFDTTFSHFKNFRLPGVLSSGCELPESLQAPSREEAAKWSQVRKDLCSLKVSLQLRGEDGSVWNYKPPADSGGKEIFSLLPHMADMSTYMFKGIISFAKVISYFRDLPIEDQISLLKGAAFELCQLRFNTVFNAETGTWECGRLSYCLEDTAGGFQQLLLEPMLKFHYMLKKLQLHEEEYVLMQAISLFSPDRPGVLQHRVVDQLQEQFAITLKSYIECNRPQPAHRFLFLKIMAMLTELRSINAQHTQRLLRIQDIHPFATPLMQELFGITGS
Protocol: D. Experimental Protocol for PXR Assay
The propensity for PXR mediated CYP3A4 induction is assessed using the DPX-2 cell line in vitro. This cell line, which has been licensed from Puracyp Inc. was derived from HepG2 cells and has been stably transfected with genes encoding human PXR as well as a modified luciferase reporter linked to the CYP3A4 promoter region and related distal and proximal enhancers.
The assay is run in 384 well format and each test article is administered in 11 doses ranging from 0.1 to 60 μM. On day 1, DPX-2 cells which have previously been expanded in-house and cryopreserved are thawed and seeded in tissue culture plates. The following day, media is changed and cells are cultured in media containing test article, vehicle control or the positive control compound, the clinically validated CYP3A4 inducer rifampicin. Cells are cultured in the presence of test article for 48 hours and then cell viability is assessed using fluorescence based assay (Cell Titer-Fluor, Promega) with an EnVision Plate Reader (PerkinElmer). Subsequently, CYP3A4 transactivation, which is proportional to luciferase activity, is measured by reading luminescense using the Promega One-Glo reagent system using the same plate reader.
Data processing within the Genedata software package allows reporting of max fold induction compared to vehicle control, an EC50 value for CYP3A4 inducers and an 11 point-dose response curve.

T1 sequence (P13569 with tags, fused parts or gaps DEL508-508): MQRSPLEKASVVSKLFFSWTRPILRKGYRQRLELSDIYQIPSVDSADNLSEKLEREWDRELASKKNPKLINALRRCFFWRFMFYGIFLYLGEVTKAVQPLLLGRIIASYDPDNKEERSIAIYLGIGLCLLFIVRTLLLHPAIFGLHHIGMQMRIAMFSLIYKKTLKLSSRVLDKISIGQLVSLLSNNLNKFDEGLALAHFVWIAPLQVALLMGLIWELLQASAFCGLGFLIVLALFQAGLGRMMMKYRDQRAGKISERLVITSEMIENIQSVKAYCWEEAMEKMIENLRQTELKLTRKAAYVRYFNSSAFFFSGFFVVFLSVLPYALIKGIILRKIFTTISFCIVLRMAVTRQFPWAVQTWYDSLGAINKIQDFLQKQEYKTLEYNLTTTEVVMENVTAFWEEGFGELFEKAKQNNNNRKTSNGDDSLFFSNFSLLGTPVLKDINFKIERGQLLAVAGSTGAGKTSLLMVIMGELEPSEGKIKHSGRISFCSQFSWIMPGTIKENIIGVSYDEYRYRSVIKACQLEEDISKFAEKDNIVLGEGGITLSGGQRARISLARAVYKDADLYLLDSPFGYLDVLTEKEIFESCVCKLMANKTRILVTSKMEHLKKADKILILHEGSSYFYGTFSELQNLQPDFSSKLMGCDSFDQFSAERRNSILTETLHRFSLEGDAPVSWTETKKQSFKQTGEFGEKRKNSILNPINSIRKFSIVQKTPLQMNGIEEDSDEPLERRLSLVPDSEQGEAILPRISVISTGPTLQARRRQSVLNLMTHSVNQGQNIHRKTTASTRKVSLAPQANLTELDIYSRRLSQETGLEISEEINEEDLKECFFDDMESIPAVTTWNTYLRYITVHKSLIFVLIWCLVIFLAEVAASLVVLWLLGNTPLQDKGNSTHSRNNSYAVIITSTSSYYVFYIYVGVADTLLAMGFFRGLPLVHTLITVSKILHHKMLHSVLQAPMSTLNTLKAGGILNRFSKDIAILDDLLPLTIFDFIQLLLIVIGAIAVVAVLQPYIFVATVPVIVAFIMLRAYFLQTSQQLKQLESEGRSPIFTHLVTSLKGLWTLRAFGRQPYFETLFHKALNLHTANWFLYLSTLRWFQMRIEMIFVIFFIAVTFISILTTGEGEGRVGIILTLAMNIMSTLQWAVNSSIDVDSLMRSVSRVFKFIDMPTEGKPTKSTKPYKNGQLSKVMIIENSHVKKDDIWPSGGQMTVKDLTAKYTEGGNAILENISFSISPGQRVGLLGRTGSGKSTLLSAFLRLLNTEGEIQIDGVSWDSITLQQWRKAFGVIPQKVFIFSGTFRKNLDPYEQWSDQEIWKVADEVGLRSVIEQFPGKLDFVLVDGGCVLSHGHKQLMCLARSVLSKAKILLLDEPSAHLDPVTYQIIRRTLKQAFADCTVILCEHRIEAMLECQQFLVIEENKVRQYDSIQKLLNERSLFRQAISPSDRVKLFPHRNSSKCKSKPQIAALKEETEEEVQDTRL

Row | EC50 (F508del-CFTR) | CYP3A4 Induction-PXR human PXR internal Max % Activity (human PXR) | Compound
1 | 190 nM |  | CCC1CN(c2nc(-n3ccc(OCC4(C(F)(F)F)CC4)n3)ccc2C(=O)NS(=O)(=O)c2cn(C)nc2C)C(C)(C)C1 (centres unmarked) [Compound 49, N-(1,3-dimethylpyrazol-4-yl)sulfonyl-2-(4-ethyl-2,2-dimethyl-pyrrolidin-1-yl)-6-[3-[[1-(trifluoromethyl)cyclopropyl]methoxy]pyrazol-1-yl]pyridine-3-carboxamide]
2 | 610 nM | 16% | Cc1nn(C)cc1S(=O)(=O)NC(=O)c1ccc(-n2ccc(OCC3(C(F)(F)F)CC3)n2)nc1N1CC(C)CC1(C)C (centres unmarked) [Compound 42, N-(1,3-dimethylpyrazol-4-yl)sulfonyl-6-[3-[[1-(trifluoromethyl)cyclopropyl]methoxy]pyrazol-1-yl]-2-(2,2,4-trimethylpyrrolidin-1-yl)pyridine-3-carboxamide]
3 | 120 nM | 4% | Cc1nn(C)cc1S(=O)(=O)NC(=O)c1ccc(-n2ccc(OCC3(C(F)(F)F)CC3)n2)nc1N1CC(C(C)C)CC1(C)C (racemic) [Compound 41, N-(1,3-dimethylpyrazol-4-yl)sulfonyl-2-(4-isopropyl-2,2-dimethyl-pyrrolidin-1-yl)-6-[3-[[1-(trifluoromethyl)cyclopropyl]methoxy]pyrazol-1-yl]pyridine-3-carboxamide]
4 | 80 nM | 13% | Cc1nn(C)cc1S(=O)(=O)NC(=O)c1ccc(-n2ccc(OCC3(C(F)(F)F)CC3)n2)nc1N1CC(C(C)(C)C)CC1(C)C (racemic) [Compound 40, 2-(4-tert-Butyl-2,2-dimethyl-pyrrolidin-1-yl)-N-(1,3-dimethylpyrazol-4-yl)sulfonyl-6-[3-[[1-(trifluoromethyl)cyclopropyl]methoxy]pyrazol-1-yl]pyridine-3-carboxamide]
5 | 390 nM | 7% | Cc1nn(C)cc1S(=O)(=O)NC(=O)c1ccc(-n2ccc(OCC3(C(F)(F)F)CC3)n2)nc1N1CC(C(C)(C)C)CC1(C)C (single isomer, unassigned) [Compound 53, 2-(4-tert-butyl-2,2-dimethyl-pyrrolidin-1-yl)-N-(1,3-dimethylpyrazol-4-yl)sulfonyl-6-[3-[[1-(trifluoromethyl)cyclopropyl]methoxy]pyrazol-1-yl]pyridine-3-carboxamide]
6 | 110 nM |  | [2H]C([2H])([2H])[C@@H]1CN(c2nc(-n3ccc(OCC(C)(C)C(F)(F)F)n3)ccc2C(=O)NS(=O)(=O)c2cn(C)nc2C)C(C)(C)C1([2H])[2H] [Compound 29, (S)—N-((1,3-dimethyl-1H-pyrazol-4-yl)sulfonyl)-2-(2,2-dimethyl-4-(methyl-d3)pyrrolidin-1-yl-3,3-d2)-6-(3-(3,3,3-trifluoro-2,2-dimethylpropoxy)-1H-pyrazol-1-yl)nicotinamide]
7 | 60 nM |  | Cc1nn(C)cc1S(=O)(=O)NC(=O)c1ccc(-n2ccc(OCC3(C(F)(F)F)CC3)n2)nc1N1C[C@@H](C(C)C)CC1(C)C (single isomer, unassigned) [Compound 47, N-(1,3-dimethylpyrazol-4-yl)sulfonyl-2-(4-isopropyl-2,2-dimethyl-pyrrolidin-1-yl)-6-[3-[[1-(trifluoromethyl)cyclopropyl]methoxy]pyrazol-1-yl]pyridine-3-carboxamide]
8 | 2100 nM |  | C[C@@H]1CN(c2nc(-n3ccc(OC4CC4)n3)ccc2C(=O)NS(=O)(=O)c2cnn(C)c2)C(C)(C)C1 [Compound 22, 6-[3-(Cyclopropoxy)pyrazol-1-yl]-N-(1-methylpyrazol-4-yl)sulfonyl-2-[(4S)-2,2,4-trimethylpyrrolidin-1-yl]pyridine-3-carboxamide]
9 |  | 11% | Cc1nn(C)cc1S(=O)(=O)NC(=O)c1ccc(-n2ccc(OCCC3C4(CC4)C34CC4)n2)nc1N1C[C@@H](C)CC1(C)C [Compound 56, N-(1,3-Dimethylpyrazol-4-yl)sulfonyl-6-[3-(2-dispiro[2.0.2.1]heptan-7-ylethoxy)pyrazol-1-yl]-2-[(4S)-2,2,4-trimethylpyrrolidin-1-yl]pyridine-3-carboxamide]
10 | 710 nM | 6% | Cc1c(S(=O)(=O)NC(=O)c2ccc(-n3ccc(OCC4(C)CC4(F)F)n3)nc2N2C[C@@H](C)CC2(C)C)cnn1C (stereo partly drawn) [Compound 24, 6-[3-[(2,2-Difluoro-1-methyl-cyclopropyl)methoxy]pyrazol-1-yl]-N-(1,5-dimethylpyrazol-4-yl)sulfonyl-2-[(4S)-2,2,4-trimethylpyrrolidin-1-yl]pyridine-3-carboxamide]
11 | 390 nM |  | Cc1nn(C)cc1S(=O)(=O)NC(=O)c1ccc(-n2ccc(OCC3(C(F)(F)F)CC3)n2)nc1N1C[C@@H](C(C)C)CC1(C)C (single isomer, unassigned) [Compound 46, N-(1,3-dimethylpyrazol-4-yl)sulfonyl-2-(4-isopropyl-2,2-dimethyl-pyrrolidin-1-yl)-6-[3-[[1-(trifluoromethyl)cyclopropyl]methoxy]pyrazol-1-yl]pyridine-3-carboxamide]
12 | 390 nM |  | Cc1nn(C)cc1S(=O)(=O)NC(=O)c1ccc(-n2ccc(OCC3(C(F)(F)F)CC3)n2)nc1N1CC(C)CC12CC2 (centres unmarked) [Compound 44, N-(1,3-dimethylpyrazol-4-yl)sulfonyl-2-(6-methyl-4-azaspiro[2.4]heptan-4-yl)-6-[3-[[1-(trifluoromethyl)cyclopropyl]methoxy]pyrazol-1-yl]pyridine-3-carboxamide]
13 | 370 nM | 5% | Cc1c(S(=O)(=O)NC(=O)c2ccc(-n3ccc(OCC(C4CC4)C4CC4)n3)nc2N2C[C@@H](C)CC2(C)C)cnn1C [Compound 33, 6-[3-(2,2-dicyclopropylethoxy)pyrazol-1-yl]-N-(1,5-dimethylpyrazol-4-yl)sulfonyl-2-[(4S)-2,2,4-trimethylpyrrolidin-1-yl]pyridine-3-carboxamide]
14 | 100 nM | 9% | C[C@@H]1CN(c2nc(-n3ccc(OCCC4(C(F)(F)F)CC4)n3)ccc2C(=O)NS(=O)(=O)c2cn(C)nc2C(F)(F)F)C(C)(C)C1 [Compound 55, N-[1-methyl-3-(trifluoromethyl)pyrazol-4-yl]sulfonyl-6-[3-[2-[1-(trifluoromethyl)cyclopropyl]ethoxy]pyrazol-1-yl]-2-[(4S)-2,2,4-trimethylpyrrolidin-1-yl]pyridine-3-carboxamide]

Row | Compound | EC50 (F508del-CFTR) | CYP3A4 Induction-PXR human PXR internal Max % Activity (human PXR)
15 | Cc1nn(C)cc1S(=O)(=O)NC(=O)c1ccc(-n2ccc(OCC3(C(F)(F)F)CC3)n2)nc1N1CC(C)CC12CCC2 (centres unmarked) [Compound 43, N-(1,3-dimethylpyrazol-4-yl)sulfonyl-2-(7-methyl-5-azaspiro[3.4]octan-5-yl)-6-[3-[[1-(trifluoromethyl)cyclopropyl]methoxy]pyrazol-1-yl]pyridine-3-carboxamide] | 220 nM | 4%
